# Data taken from patent US4820834A, “Benzodiazepine analogs” (priority 1987, dated 1989).
# Read-outs that look alike come from different tables or passages of the source.
# Legend:
# [1] = target: T1, CCK receptor (brain, cerebral cortex) (Cavia porcellus, UniProt H0VZC5); assay: biochemical; assay type: binding, Male Hartley guinea pigs; conditions: guinea pig cerebral cortex, ^125 I-CCK-33, 25° C., 2 hours
# T1 construct: Cerebral cortex was dissected and used as a receptor source; from tissue; host or cells: guinea pig cerebral cortex membranes (male Hartley)
# T1 sequence (H0VZC5 1-426): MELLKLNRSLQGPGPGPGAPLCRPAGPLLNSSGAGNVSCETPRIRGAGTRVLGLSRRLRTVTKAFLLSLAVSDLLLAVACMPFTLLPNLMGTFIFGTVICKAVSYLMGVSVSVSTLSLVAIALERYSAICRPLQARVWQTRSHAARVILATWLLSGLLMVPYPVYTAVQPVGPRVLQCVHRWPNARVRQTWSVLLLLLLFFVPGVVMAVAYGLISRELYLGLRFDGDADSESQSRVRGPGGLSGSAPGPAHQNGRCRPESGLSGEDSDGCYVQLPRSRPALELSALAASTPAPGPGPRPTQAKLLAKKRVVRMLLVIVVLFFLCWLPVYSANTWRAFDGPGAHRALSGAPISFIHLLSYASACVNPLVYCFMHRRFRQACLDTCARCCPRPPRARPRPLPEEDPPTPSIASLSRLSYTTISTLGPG
# Experimental: 2. CCK Recepto Binding (Brain)
# CCK-33 was radiolabeled and the binding was Performed according to the description for the Pancreas method with modifications according to Saito et al., J. Neurochem.
# Cerebral cortex was dissected and used as a receptor source. Each gram of fresh guinea pig brain tissue was homogenized in 10 ml of Tris/Trizma buffer with a Brinkman polytron PT-10. The homogenates were centrifuged at 42,000 g for 15 minutes. Pellets were resuspended in Tris Buffer, centrifuged as above and resuspended in 200 volumes of binding assay buffer (10 mM N-2-hydroxyethyl-piperazine-N'-2-ethane sulfonic acid (HEPES), 5 mM MgCl2, 0.25 mg/ml bacitracin, 1 mM ethylene glycol-bis-(β-aminoethylether-N,N'-tetraacetic acid) (EGTA), and 0.4% bovine serum albumin (BSA)). […] All assays were run in duplicate or triplicate. The reaction mixtures were incubated at 25° C. for 2 hours and centrifuged in a Beckman Microfuge (4 minutes) immediately after adding 1 ml of ice-cold incubation buffer. The supernatant was aspirated and discarded, pellets were counted with a Beckman gamma 5000.
# [2] = target: T2, Gastrin receptor (gastric glands) (Cavia porcellus, UniProt H0VZC5); assay: Gastrin Receptor Binding in Guinea Pig Gastric Glands; parameters: species or system guinea pig (male Hartley); conditions: 25° C., 30 minutes
# T2 construct: The washed guinea pig gastric glands prepared as above were resuspended; from tissue; host or cells: guinea pig gastric mucosal glands (male Hartley)
# T2 sequence (H0VZC5 1-426): T1 sequence (H0VZC5 1-426)
# [3] = IC50 ^125 I-Gastrin Gastric Glands
# [4] = ^125 I-gastrin, read-out: IC50 ^125 I-Gastrin Gastric Glands
Structure (SMILES),IC50 ([1]; IC50 ^125 I-CCK Brain) [µM],"IC50 [2, 3] [µM]","IC50 [2, 4] [µM]",IC50 ([1]; read-out: IC50 ^125 I-CCK Brain) [µM]
"O=C(NC1N=C(c2ccccc2F)c2ccccc2NC1=O)c1ccc(C(F)(F)F)cc1 (racemic) [Example 134, 1,3-Dihydro-5-(2-fluorophenyl)-3-(RS)-(p-trifluoro-methylbenzoylamino)-2H-1,4-benzodiazepin-2-one]",40,9.5,,
"Cc1ccc(C(=O)NC2N=C(c3ccccc3F)c3ccccc3NC2=O)cc1 (racemic) [Example 135, 1,3-Dihydro-5-(2-fluorophenyl)-3-(RS)-(p-methylbenzoylamino)-2H-1,4-benzodiazepin-2-one]",> 40,5,,
"COc1ccc(C(=O)NC2N=C(c3ccccc3F)c3ccccc3NC2=O)cc1 (racemic) [Example 136, 1,3-Dihydro-5-(2-fluorophenyl)-3-(RS)-(p-methoxybenzoylamino)-2H-1,4-benzodiazepin-2-one]",> 40,5.4,,
"O=C(NC1N=C(c2ccccc2)c2ccccc2NC1=O)c1ccccc1Cl (racemic) [Example 137, 3-(RS)-(o-Chlorobenzoylamino)-1,3-dihydro-5-phenyl-2H-1,4-benzodiazepin-2-one]",> 40,52,,
"CN1C(=O)C(N(C)C(=O)c2ccccc2Cl)N=C(c2ccccc2)c2ccccc21 (racemic) [Example 138, 3-(RS)-(N-(o-Chlorobenzoyl)-N-methylamino)-1,3-dihydro-1-methyl-5-phenyl-2H-1,4-benzodiazepin-2-one]",100,> 100,,
"CN1C(=O)C(NC(=O)c2ccccc2Cl)N=C(c2ccccc2)c2ccccc21 (racemic) [Example 139, 3-(RS)-(o-Chlorobenzoylamino)-1,3-dihydro-1-methyl-5-phenyl-2H-1,4-benzodiazepin-2-one]",> 100,,30,
"O=C(NC1N=C(c2ccccc2)c2ccccc2NC1=O)c1cccc(Cl)c1 (racemic) [Example 140, 3-(RS)-(m-Chlorobenzoylamino)-1,3-dihydro-5-phenyl-2H-1,4-benzodiazepin-2-one]",75,4.3,,
"O=C(NC1N=C(c2ccccc2)c2ccccc2NC1=O)c1ccc(Cl)c(Cl)c1 (racemic) [Example 141, 3-(RS)-(3,4-Dichlorobenzoylamino)-1,3-dihydro-5-phenyl-2H-1,4-benzodiazepin-2-one]",> 40,25,,
"CN1C(=O)C(NC(=O)c2ccc(Cl)cc2)[N+]([O-])=C(c2ccccc2F)c2ccccc21 (racemic) [Example 142, 3-(RS)-(p-Chlorobenzoylamino)-1,3-dihydro-5-(2'-fluorophenyl)-1-methyl-4-oxo-2H-1,4-benzodiazepin-2-one]",18,2.4,,
"CSc1ccc(C(=O)NC2N=C(c3ccccc3)c3ccccc3NC2=O)cc1 (racemic) [Example 143, 1,3-Dihydro-5-Phenyl-3-(RS)-(4'-methylthiobenzoylamino)-2H-1,4-benzodiazepin-2-one]",23,8,,
"O=C(NC1N=C(c2ccccc2)c2ccccc2NC1=O)c1ccc(F)cc1 (racemic) [Example 144, 1-3-Dihydro-3-(RS)-(4'-fluorobenzoylamino)-5-phenyl-2H-1,4-benzodiazeoin-2-one]",43,9.4,,
"O=C(NC1N=C(c2ccccc2)c2ccccc2NC1=O)c1ccc(C(F)(F)F)cc1 (racemic) [Example 145, 1,3-Dihydro-5-Phenyl-3-(RS)-(4'-trifluoromethylbenzoylamino)-2H-1,4-benzodiazepin-2-one]",65,36,,
"CC(C)(C)c1ccc(C(=O)NC2N=C(c3ccccc3)c3ccccc3NC2=O)cc1 (racemic) [Example 146, 1,3-Dihydro-3-(RS)-(4'-tert-butylbenzoylamino)-5-phenyl-2H-1,4-benzodiazepin-2-one]",100,40,,
"O=C(NC1N=C(c2ccccc2)c2ccccc2NC1=O)c1cc(Cl)cc(Cl)c1 (racemic) [Example 147, 3-(RS)-(3,5-Dichlorobenzoylamino)1,3-dihydro-5-phenyl-2H-1,4-benzodiazepin-2-one]",> 100,180,,
"O=C(NC1N=C(c2ccccc2)c2ccccc2NC1=O)c1ccc(O)cc1 (racemic) [Example 148, 1-3-Dihydro-3-(RS)-(p-Hydroxybenzoylamino)-5-phenyl-2H-1,4-benzodiazepin-2-one]",100,31,,
"CN(C)c1ccc(C(=O)NC2N=C(c3ccccc3F)c3ccccc3NC2=O)cc1 (racemic) [Example 152, 1,3-Dihydro-3(RS)-(p-dimethylaminobenzoylamino)-5-(2-fluorophenyl)-2H-1,4-benzodiazepin-2-one]",> 100,> 100,,
"COc1ccc(C(=O)NC2N=C(c3ccccc3F)c3ccccc3NC2=O)cc1OC (racemic) [Example 153, 1,3-Dihydro-3(RS)-(3,4-dimethoxybenzoylamino)-5-(2-fluorophenyl)-2H-1,4-benzodiazepin-2-one]",> 40,> 40,,
"O=C(NC1N=C(c2ccccc2)c2ccccc2NC1=O)c1cccc(SC(F)(F)F)c1 (racemic) [Example 155, 1,3-Dihydro-5-phenyl-3(RS)-(3-trifluoromethylthiobenzoylamino)-2H-1,4-benzodiazepin-2-one]",> 100,128,,
"O=C(NC1N=C(c2ccccc2F)c2ccccc2NC1=O)c1ccc[nH]1 (racemic) [Example 158, 1,3-Dihydro-5-(2-fluorophenyl)-3(RS)-(pyrrole-2-carbonylamino)-2H-1,4-benzodiazepin-2-one]",100,25,,
"O=C(NC1N=C(c2ccccc2)c2ccccc2NC1=O)c1ccc2ccccc2c1 (racemic) [Example 160, 1,3-Dihydro-3(RS)-(2-naphthoylamino)-5-phenyl-2H-1,4-benzodiazepin-2-one]",12,14,,
"CCCc1ccc(C(=O)NC2N=C(c3ccccc3)c3ccccc3NC2=O)cc1 (racemic) [Example 163, 1,3-Dihydro-5-phenyl-3(RS)-(4-α-propylbenzoylamino)-2H-1,4-benzodiazepin-2-one]",12,80,,
"O=C(NC1N=C(c2ccccc2)c2ccccc2NC1=O)c1ccc(-c2ccccc2)cc1 (racemic) [Example 164, 1,3-Dihydro-5-phenyl-3(RS)-(4-phenylbenzoylamino)-2H-1,4-benzodiazepin-2-one]",18,> 100,,
"CCCCCc1ccc(C(=O)NC2N=C(c3ccccc3)c3ccccc3NC2=O)cc1 (racemic) [Example 165, 1,3-Dihydro-3(RS)-(4-n-pentylbenzoylamino)-5-phenyl-2H-1,4-benzodiazepin-2-one]",8,> 100,,
"O=C(NC1N=C(c2ccccc2)c2ccccc2NC1=O)c1cccc2ccccc12 (racemic) [Example 166, 1,3-Dihydro-3(RS)-(1-naphthoylamino)-5-phenyl-2H-1,4-benzodiazepin-2-one]",12,29,,
"O=C(NC1N=C(c2ccccc2F)c2ccccc2NC1=O)c1ccccc1 (racemic) [Example 173, 1,3-Dihydro-5-(2-fluorophenyl)-3(RS)-phenylcarbonylamino-2H-1,4-benzodiazepin-2-one]",> 40,28,,
"O=C(NC1N=C(c2ccccc2F)c2ccccc2NC1=O)c1ccccc1Cl (racemic) [Example 174, 1,3-Dihydro-5-(2-fluorophenyl)-3(RS)-(2-chlorophenyl)carbonylamino-2H-1,4-benzodiazepin-2-one]",> 40,18,,
"O=C(NC1N=C(c2ccccc2F)c2ccccc2N(C(=O)c2ccc(Cl)cc2)C1=O)c1ccc(Cl)cc1 (racemic) [Example 177, 1-(4-Chlorophenyl)carbonyl-1,3-dihydro-5-(2-fluorophenyl)-3(RS)-(4-chlorophenyl)carbonylamino-2H-1,4-benzodiazepin-2-one]",3.7,0.55,,
"O=C(Nc1ccc(Cl)cc1)NC1N=C(c2ccccc2F)c2ccccc2NC1=O (racemic) [Example 182, 1,3-Dihydro-3(RS)-(4-chlorophenyl)aminocarbonylamino-5-(2-fluorophenyl)-2H-1,4-benzodiazepin-2-one]",0.3,0.26,,
"N[C@@H](Cc1ccccc1)C(=O)NC1N=C(c2ccccc2)c2ccccc2NC1=O (single isomer, unassigned) [Example 186]",,,> 100,> 100
